Assay results published in patent publication US20170190671A1, “BIS(ARYL)CATECHOL DERIVATIVES AS HERBICIDES” (E I DU PONT DE NEMOURS AND COMPANY, priority 2014, published 2017).

Key:
Type in all cases: in vivo
[1] = test system: pigweed (Amaranthus retroflexus); assay: Test A preemergence; settings: Amaranthus retroflexus, pre-emergence, 240 h, 0 to 100 scale, read-out: Plant response rating, Pigweed
Method in brief: (§1)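 Scoring: eye-based comparison with untreated controls, 0 for no effect through 100 for complete control, at about day 10. Treatments: directed soil spray preemergence; foliar spray postemergence on 2–10 cm plants at the one- to two-leaf stage. Medium: loam soil with sand.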

[2] = test system: barnyardgrass (Echinochloa crus-galli); assay: Test A preemergence; settings: Echinochloa crus-galli, pre-emergence, 240 h, 0 to 100 scale, read-out: Plant response rating, Barnyardgrass
Method in brief: as §1

kochia (Kochia scoparia) [3] = assay: Test A preemergence; settings: Bassia scoparia, pre-emergence, 240 h, 0 to 100 scale, read-out: Plant response rating, Kochia
Method in brief: as §1

[4] = test system: ragweed (common ragweed, Ambrosia elatior); assay: Test A preemergence; settings: Ambrosia artemisiifolia, pre-emergence, 240 h, 0 to 100 scale, read-out: Plant response rating, Ragweed
Method in brief: as §1

[5] = test system: giant foxtail (Setaria faberii); assay: Test A preemergence; settings: Setaria faberi, pre-emergence, 240 h, 0 to 100 scale, read-out: Plant response rating, Foxtail, Giant
Method in brief: as §1

[6] = test system: Italian ryegrass (Lolium multiflorum); assay: Test A preemergence; settings: Lolium multiflorum, pre-emergence, 240 h, 0 to 100 scale, read-out: Plant response rating, Ryegrass, Italian
Method in brief: as §1

[7] = test system: lambsquarters (Chenopodium album); assay: Test C preemergence; settings: Chenopodium album, pre-emergence, 336 h, scale 0 to 100, read-out: Plant response rating, Lambsquarters
Method in brief: (§2)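 Seeds sown in a loam soil and sand blend were treated preemergence; plants in peat-moss/vermiculite medium were sprayed at the 1- to 4-leaf stage (2-18 cm). Chemicals were in a non-phytotoxic surfactant-containing solvent. After 13 to 15 days in a greenhouse, injury was visually rated against controls on a 0-100 scale.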

[8] = test system: yellow nutsedge (Cyperus esculentus); assay: Test C preemergence; settings: Cyperus, pre-emergence, 336 h, scale 0 to 100, read-out: Plant response rating, Nutsedge, Yellow
Method in brief: as §2

[9] = test system: galium (catchweed bedstraw, Galium aparine); assay: Test C preemergence; settings: Galium, pre-emergence, 336 h, scale 0 to 100, read-out: Plant response rating, Galium
Method in brief: as §2

[10] = test system: ducksalad (Heteranthera limosa); assay: Test B flooded paddy; settings: Heteranthera limosa, 336 h; 250 g ai/ha, Flood, 13 to 15 days, scale 0 (no effect) to 100 (complete control); read-out: Plant response rating, Ducksalad
Method in brief: (§3)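 Visual injury ratings against untreated controls, taken 13 to 15 days after compound was added to paddy water standing 3 cm above the soil.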

rice (Oryza sativa) = assay: Test B flooded paddy; settings: Oryza sativa, 336 h; 250 g ai/ha, Flood, 13 to 15 days, scale 0 (no effect) to 100 (complete control); read-out: Plant response rating, Rice
Method in brief: as §3

[11] = test system: barnyardgrass (Echinochloa crus-galli); assay: Test B flooded paddy; settings: Echinochloa crus-galli, 336 h; 250 g ai/ha, Flood, 13 to 15 days, scale 0 (no effect) to 100 (complete control); read-out: Plant response rating, Barnyardgrass
Method in brief: as §3

[12] = test system: sedge, umbrella (small-flower umbrella sedge, Cyperus difformis); assay: Test B flooded paddy; settings: Cyperus difformis, 336 h; 250 g ai/ha, Flood, 13 to 15 days, scale 0 (no effect) to 100 (complete control); read-out: Plant response rating, Sedge, Umbrella
Method in brief: as §3

[13] = test system: wheat (Triticum aestivum); assay: Test A postemergence; settings: Triticum aestivum, post-emergence, 240 h, 0 to 100 scale, read-out: Plant response rating, Wheat
Method in brief: as §1

[14] = test system: pigweed (Amaranthus retroflexus); assay: Test A postemergence; settings: Amaranthus retroflexus, post-emergence, 240 h, 0 to 100 scale, read-out: Plant response rating, Pigweed
Method in brief: as §1

[15] = test system: barnyardgrass (Echinochloa crus-galli); assay: Test A postemergence; settings: Echinochloa crus-galli, post-emergence, 240 h, 0 to 100 scale, read-out: Plant response rating, Barnyardgrass
Method in brief: as §1

[16] = test system: galium (catchweed bedstraw, Galium aparine); assay: Test A postemergence; settings: Galium, post-emergence, 240 h, 0 to 100 scale, read-out: Plant response rating, Galium
Method in brief: as §1

kochia (Kochia scoparia) [17] = assay: Test A postemergence; settings: Bassia scoparia, post-emergence, 240 h, 0 to 100 scale, read-out: Plant response rating, Kochia
Method in brief: as §1

[18] = test system: blackgrass (Alopecurus myosuroides); assay: Test A postemergence; settings: Alopecurus myosuroides, post-emergence, 240 h, 0 to 100 scale, read-out: Plant response rating, Blackgrass
Method in brief: as §1

[19] = test system: ragweed (common ragweed, Ambrosia elatior); assay: Test A postemergence; settings: Ambrosia artemisiifolia, post-emergence, 240 h, 0 to 100 scale, read-out: Plant response rating, Ragweed
Method in brief: as §1

[20] = test system: giant foxtail (Setaria faberii); assay: Test A postemergence; settings: Setaria faberi, post-emergence, 240 h, 0 to 100 scale, read-out: Plant response rating, Foxtail, Giant
Method in brief: as §1

corn (Zea mays) = assay: Test A postemergence; settings: Zea mays, post-emergence, 240 h, 0 to 100 scale
Method in brief: as §1

[21] = test system: Italian ryegrass (Lolium multiflorum); assay: Test A postemergence; settings: Lolium multiflorum, post-emergence, 240 h, 0 to 100 scale, read-out: Plant response rating, Ryegrass, Italian
Method in brief: as §1

Structure (SMILES): N#Cc1cccc(Oc2ncc(Cl)cn2)c1Oc1ncc(Br)cn1 [Compound 4, 2-[(5-bromo-2-pyrimidinyl)oxy]-3-[(5-chloro-2-pyrimidinyl)oxy]benzonitrile]
- pest or weed control at 125 g/ha ([1]; 125 g ai/ha): 100%
- pest or weed control at 500 g/ha ([1]; 500 g ai/ha): 100%
- pest or weed control at 125 g/ha ([2]; 125 g ai/ha): 70%
- pest or weed control at 500 g/ha ([2]; 500 g ai/ha): 100%
- pest or weed control at 125 g/ha (kochia (Kochia scoparia) [3]; 125 g ai/ha): 90%
- pest or weed control at 500 g/ha (kochia (Kochia scoparia) [3]; 500 g ai/ha): 100%
- pest or weed control at 125 g/ha ([4]; 125 g ai/ha): 80%
- pest or weed control at 500 g/ha ([4]; 500 g ai/ha): 100%
- pest or weed control at 125 g/ha ([5]; 125 g ai/ha): 100%
- pest or weed control at 500 g/ha ([5]; 500 g ai/ha): 100%
- pest or weed control at 125 g/ha ([6]; 125 g ai/ha): 20%
- pest or weed control at 500 g/ha ([6]; 500 g ai/ha): 100%
- pest or weed control at 31 g/ha ([7]; 31 g ai/ha, preemergence): 95%
- pest or weed control at 62 g/ha ([7]; 62 g ai/ha, preemergence): 85%
- pest or weed control at 125 g/ha ([7]; 125 g ai/ha, preemergence): 100%
- pest or weed control at 16 g/ha ([7]; Preemergence, 16 g ai/ha): 75%
- pest or weed control at 31 g/ha ([8]; 31 g ai/ha, preemergence): 0%
- pest or weed control at 62 g/ha ([8]; 62 g ai/ha, preemergence): 30%
- pest or weed control at 125 g/ha ([8]; 125 g ai/ha, preemergence): 55%
- pest or weed control at 16 g/ha ([8]; Preemergence, 16 g ai/ha): 0%
- pest or weed control at 31 g/ha ([9]; 31 g ai/ha, preemergence): 30%
- pest or weed control at 62 g/ha ([9]; 62 g ai/ha, preemergence): 30%
- pest or weed control at 125 g/ha ([9]; 125 g ai/ha, preemergence): 100%
- pest or weed control at 16 g/ha ([9]; Preemergence, 16 g ai/ha): 5%
- pest or weed control at 250 g/ha [10]: 95%
- plant injury at 250 g/ha (rice (Oryza sativa)): 0%
- pest or weed control at 250 g/ha [11]: 0%
- pest or weed control at 250 g/ha [12]: 80%
- plant injury at 125 g/ha ([13]; 125 g ai/ha): 50%
- plant injury at 500 g/ha ([13]; 500 g ai/ha): 100%
- pest or weed control at 125 g/ha ([14]; 125 g ai/ha): 100%
- pest or weed control at 500 g/ha ([14]; 500 g ai/ha): 100%
- pest or weed control at 125 g/ha ([15]; 125 g ai/ha): 100%
- pest or weed control at 500 g/ha ([15]; 500 g ai/ha): 100%
- pest or weed control at 125 g/ha ([16]; 125 g ai/ha): 100%
- pest or weed control at 500 g/ha ([16]; 500 g ai/ha): 100%
- pest or weed control at 125 g/ha (kochia (Kochia scoparia) [17]; 125 g ai/ha): 100%
- pest or weed control at 500 g/ha (kochia (Kochia scoparia) [17]; 500 g ai/ha): 100%
- pest or weed control at 125 g/ha ([18]; 125 g ai/ha): 100%
- pest or weed control at 500 g/ha ([18]; 500 g ai/ha): 100%
- pest or weed control at 125 g/ha ([19]; 125 g ai/ha): 100%
- pest or weed control at 500 g/ha ([19]; 500 g ai/ha): 100%
- pest or weed control at 125 g/ha ([20]; 125 g ai/ha): 100%
- pest or weed control at 500 g/ha ([20]; 500 g ai/ha): 100%
- Corn plant response rating (crop injury, 0 = no effect, 100 = complete kill) at 125 g/ha (corn (Zea mays); 125 g ai/ha): 80%
- Corn plant response rating (crop injury, 0 = no effect, 100 = complete kill) at 500 g/ha (corn (Zea mays); 500 g ai/ha): 100%
- pest or weed control at 125 g/ha ([21]; 125 g ai/ha): 100%
- pest or weed control at 500 g/ha ([21]; 500 g ai/ha): 100%
